Tests used:
STAT3 [1] = test: STAT3 dimerization assay and immunoprecipitation; assay type: cell-based, rat; details: PDGF-BB-induced VSMCs; CAB 3–5 μmol/L, AG490 20 μmol/L, stattic 1 μmol/L
[2] = assay type: in vivo, Sprague–Dawley rats
CDK4 = test: Western blot, CDK4 expression; assay type: cell-based, rat; details: 1–5 μmol/L, 24 h
CIAPIN1 [3] = test: CIAPIN1 nuclear accumulation; assay type: cell-based, rat; details: PDGF-BB-induced VSMCs, 24 h
JAK2 = test: Western blot, JAK2 expression and phosphorylation in PDGF-BB-induced VSMCs; assay type: cell-based, rat; details: for PDGF-BB-induced JAK2 expression: 24 h; for PDGF-BB-induced JAK2 expression / JAK2 phosphorylation: CAB 1–5 μmol/L, stattic 1 μmol/L; for JAK2 phosphorylation: PDGF-BB 24 h
VSMCs [4] = test: Annexin V/PI apoptosis detection assay; assay type: cell-based, rat; details: 5 μmol/L, 26 h, compared with control
SPP1 = test: Western blot, SPP1 expression in PDGF-BB-induced VSMCs; assay type: cell-based, rat; details: 24 h; CAB 1–5 μmol/L, stattic 1 μmol/L
STAT3 [5] = test: Western blot, STAT3 phosphorylation in PDGF-BB-induced VSMCs; assay type: cell-based, rat; details: for STAT3 phosphorylation: PDGF-BB 24 h, CAB 1–5 μmol/L, stattic 1 μmol/L
MMP9 [6] = test: Gelatin zymography, MMP9 activity; assay type: cell-based, rat; details: 1–5 μmol/L, PDGF-BB 24 h
ERK1/2 = test: Western blot, ERK1/2 phosphorylation in PDGF-BB-induced VSMCs; assay type: cell-based, rat; details: 1–5 μmol/L, PDGF-BB 15 min
PDGFR-β = test: Western blot, PDGFR-β phosphorylation in PDGF-BB-induced VSMCs; assay type: cell-based, rat; details: 1–5 μmol/L, PDGF-BB 15 min
MMP9 [7] = test: Western blot, MMP9 expression; assay type: cell-based, rat; details: 1–5 μmol/L, 24 h
His-STAT3 = test: His-tag pull-down assay with CAB-conjugated Sepharose 6B; assay type: binding, Mus musculus
phospho-pRb (p-pRb) = test: Western blot, phospho-pRb; assay type: cell-based, rat; details: 1–5 μmol/L, 24 h
CDK2 = test: Western blot, CDK2 expression; assay type: cell-based, rat; details: 1–5 μmol/L, 24 h
STAT3 [8] = test: STAT3 nuclear translocation; assay type: cell-based, rat; details: PDGF-BB 15 min
[9] = system: Ciapin1 promoter (STAT3-RE1); test: ChIP-PCR assay, STAT3 binding to Ciapin1 promoter; assay type: cell-based, rat; details: CAB 2 h, then PDGF-BB 6 h
CIAPIN1 [10] = test: Western blot, CIAPIN1 expression in PDGF-BB-induced VSMCs; assay type: cell-based, rat; details: 24 h; CAB 1–5 μmol/L, stattic 1 μmol/L
VSMCs [11] = test: MTT cytotoxicity assay in VSMCs; assay type: cell-based, rat; details: 5 μmol/L, 26 h
PCNA = test: Western blot, PCNA expression; assay type: cell-based, rat; details: 1–5 μmol/L, 24 h
cyclin E1 = test: Western blot, cyclin E1 expression; assay type: cell-based, rat; details: 1–5 μmol/L, 24 h
rat carotid arteries = test: Balloon injury-induced neointima formation in rat carotid artery; assay type: in vivo, Sprague–Dawley rats; details: 20 mg/kg orally daily, 14 days
p38 = test: Western blot, p38 phosphorylation in PDGF-BB-induced VSMCs; assay type: cell-based, rat; details: 1–5 μmol/L, PDGF-BB 15 min
CDKN1B = test: Western blot, CDKN1B expression in PDGF-BB-induced VSMCs; assay type: cell-based, rat; details: 24 h, CAB 1–5 μmol/L, stattic 1 μmol/L
SRC = test: Western blot, SRC phosphorylation in PDGF-BB-induced VSMCs; assay type: cell-based, rat; details: 5 μmol/L, PDGF-BB 15 min
KLF4 = test: Western blot, KLF4 expression in PDGF-BB-induced VSMCs; assay type: cell-based, rat; details: 24 h; CAB 1–5 μmol/L, stattic 1 μmol/L
STAT3 [12] = test: STAT3 dual-luciferase reporter assay; assay type: cell-based, rat; details: PDGF-BB 6 h
rat Ciapin1 promoter = test: Ciapin1 promoter luciferase assay; assay type: cell-based; details: PDGF-BB 6 h
PDGF-BB-induced VSMCs [13] = test: Cell cycle progression analysis; assay type: cell-based, rat; details: CAB-treated versus PDGF-BB-induced VSMCs, 24 h
AKT = test: Western blot, AKT phosphorylation in PDGF-BB-induced VSMCs; assay type: cell-based, rat; details: 1–5 μmol/L, PDGF-BB 15 min
cyclin D1 = test: Western blot, cyclin D1 expression; assay type: cell-based, rat; details: 1–5 μmol/L, 24 h
[14] = biological target: STAT3 protein (amino acids 127–688) (Homo sapiens, UniProt P40763); test: Surface plasmon resonance; assay type: binding; details: immobilized STAT3 (127–688 aa), 25 °C
STAT3 protein (amino acids 127–688), sequence (P40763 127-688): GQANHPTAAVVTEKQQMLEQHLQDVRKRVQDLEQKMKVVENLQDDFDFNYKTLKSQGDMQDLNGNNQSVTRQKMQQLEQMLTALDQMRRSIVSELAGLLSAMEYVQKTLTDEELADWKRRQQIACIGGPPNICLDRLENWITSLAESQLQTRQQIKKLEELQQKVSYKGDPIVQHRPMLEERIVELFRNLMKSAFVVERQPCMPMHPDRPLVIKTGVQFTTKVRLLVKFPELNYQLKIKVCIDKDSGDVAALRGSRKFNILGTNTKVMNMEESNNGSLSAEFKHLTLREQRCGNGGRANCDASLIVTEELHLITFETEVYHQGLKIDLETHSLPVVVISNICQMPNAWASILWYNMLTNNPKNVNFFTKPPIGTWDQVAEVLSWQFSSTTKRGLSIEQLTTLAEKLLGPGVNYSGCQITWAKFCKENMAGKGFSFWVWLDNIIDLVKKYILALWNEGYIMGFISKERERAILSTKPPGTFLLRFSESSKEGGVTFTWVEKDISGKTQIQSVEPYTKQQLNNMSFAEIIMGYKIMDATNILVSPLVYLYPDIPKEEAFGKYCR

PDGF-BB-induced VSMCs [15] = test: MTT assay, PDGF-BB-induced VSMC proliferation; assay type: cell-based, rat; details: 5 μmol/L for 2 h, then PDGF-BB 25 ng/mL for 24 h
[16] = rat serum, after 2 weeks of CAB administration

## N#C/C(=C/c1ccc(O)c(O)c1)C(=O)NCc1ccccc1 [AG490]
STAT3 [1]
  STAT3 dimerization: inhibitory effect

## Nc1ccc(C(=O)Oc2ccc3[nH]c4ccccc4c3c2)cc1 [CAB, 9H-Carbazol-3-yl 4-aminobenzoate]
[2]; [16]
  glutamic pyruvic transaminase (GPT/ALT, soluble) level: no alterations
  glutamic-oxaloacetic transaminase 1 (GOT1/AST, soluble) level: no alterations
[2]; rat, 20 mg/kg orally daily
  histological morphology of liver, heart, lung, and kidney: no significant changes
  side effects, such as diarrhea and weight loss: did not show any side effects
[2]; rat, 14 days post-injury, compared with control group
  cell death induction (TUNEL staining) in carotid arteries: no signs of cell death induction
CDK4
  PDGF-BB-induced CDK4 expression: significantly inhibited
CIAPIN1 [3]
  CIAPIN1 nuclear accumulation: significantly reduced
JAK2; 5 μmol/L, PDGF-BB 15 min
  PDGF-BB-induced JAK2 phosphorylation: did not inhibit
JAK2
  PDGF-BB-induced JAK2 expression: significantly inhibited
  JAK2 phosphorylation: attenuated
VSMCs [4]
  cell apoptosis induction: no signs of cell apoptosis induction
SPP1
  PDGF-BB-induced expression of SPP1: decreased
STAT3 [5]; 1–5 μmol/L, PDGF-BB 15 min
  PDGF-BB-induced STAT3 tyrosine (Tyr) 705 phosphorylation: significantly inhibited
  STAT3 serine (Ser) 727 phosphorylation: without affecting
STAT3 [5]
  STAT3 phosphorylation: attenuated
MMP9 [6]
  MMP9 proteolytic activity: significantly inhibited
ERK1/2
  PDGF-BB-stimulated ERK1/2 phosphorylation: did not affect
PDGFR-β
  PDGF-BB-stimulated PDGFR-β phosphorylation: did not affect
STAT3 [1]
  STAT3 dimerization: inhibited
MMP9 [7]
  PDGF-BB-induced MMP9 expression: significantly inhibited
His-STAT3; Ile59, Arg609, and Glu612 mutated, compared to full-length
  binding to STAT3 with mutated SH2 residues: did not bind to STAT3 strongly
His-STAT3; full-length His-STAT3
  pull-down of full-length STAT3 by CAB-conjugated beads: successfully pulled down
His-STAT3; ΔSH2
  pull-down of STAT3 fragments lacking SH2 by CAB-conjugated beads: did not pull down
phospho-pRb (p-pRb)
  PDGF-BB-induced phospho-pRb (p-pRb): significantly inhibited
CDK2
  PDGF-BB-induced CDK2 expression: significantly inhibited
STAT3 [8]
  PDGF-BB-increased STAT3 phosphorylation and nuclear translocation: blocked
[9]
  binding of STAT3 to the Ciapin1 promoter region (protein/DNA binding): inhibited
CIAPIN1 [10]
  PDGF-BB-induced CIAPIN1 expression: significantly inhibited
VSMCs [11]
  cytotoxic effects in VSMCs: did not induce cytotoxic effects
PCNA
  PDGF-BB-induced PCNA expression: significantly inhibited
Cyclin E1
  PDGF-BB-induced cyclin E1 expression: significantly inhibited
Rat carotid arteries
  CIAPIN1 expression in the neointima region: remarkably decreased
Rat carotid arteries; BI + CAB vs BI
  arterial intimal areas: lower
  circumference of the external elastic lamina (EEL): no differences
  media area: no differences
Rat carotid arteries; vs BI group
  balloon injury-induced neointima formation: significantly attenuated
  expression of PCNA in carotid arteries: significantly decreased
p38
  PDGF-BB-stimulated p38 phosphorylation: did not affect
CDKN1B
  CDKN1B expression: dose-dependently restored
SRC
  PDGF-BB-induced SRC phosphorylation: did not inhibit
KLF4
  PDGF-BB-induced expression of KLF4: decreased
STAT3 [12]
  PDGF-BB-induced STAT3 DNA binding activity (luciferase reporter): inhibited
Rat Ciapin1 promoter
  PDGF-BB-induced CIAPIN1 luciferase expression: inhibited
PDGF-BB-induced VSMCs [13]
  G0/G1 phase proportion: increase
AKT
  PDGF-BB-stimulated AKT phosphorylation: did not affect
Cyclin D1
  PDGF-BB-induced cyclin D1 expression: significantly inhibited

## O=[N+]([O-])c1ccc2c(c1)S(=O)(=O)C=C2 [Stattic, reference compound]
CIAPIN1 [3]
  CIAPIN1 nuclear accumulation: significantly reduced
JAK2
  PDGF-BB-induced JAK2 expression: significantly inhibited
  JAK2 phosphorylation: significantly inhibited
SPP1
  PDGF-BB-induced expression of SPP1: inhibited
STAT3 [5]
  STAT3 phosphorylation: significantly inhibited
STAT3 [1]
  STAT3 dimerization: inhibitory effect
CIAPIN1 [10]
  PDGF-BB-induced CIAPIN1 expression: significantly inhibited
CDKN1B
  CDKN1B expression: increased
KLF4
  PDGF-BB-induced expression of KLF4: inhibited
[14]
  Ka, association rate constant: 1002 mol⁻¹ L⁻¹ s⁻¹
  Kd, dissociation rate constant: 0.009083 s⁻¹
[14]; read-out: KD, equilibrium constant
  Kd: 9.07 µM

## O=C(Oc1ccc2[nH]c3ccccc3c2c1)c1ccc(O)cc1 [compound 2, 9H-Carbazol-3-yl 4-hydroxybenzoate]
PDGF-BB-induced VSMCs [15]
  PDGF-BB-stimulated VSMC proliferation: significantly inhibited

## N=C(N)Nc1ccc(C(=O)Oc2ccc3[nH]c4ccccc4c3c2)cc1 [compound 3, 9H-Carbazol-3-yl 4-guanidinobenzoate]
PDGF-BB-induced VSMCs [15]
  PDGF-BB-stimulated VSMC proliferation: significantly inhibited

## CC(=O)Nc1ccc(C(=O)Oc2ccc3[nH]c4ccccc4c3c2)cc1 [compound 4, 9H-Carbazol-3-yl 4-acetamidobenzoate]
PDGF-BB-induced VSMCs [15]
  PDGF-BB-stimulated VSMC proliferation: significantly inhibited

Source: paper PMC12069901 (Acta Pharmaceutica Sinica. B, 2025)
